ChEMBL document CHEMBL1201862, “PubChem BioAssay data set” (2004)
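These data come from cells grown in 96-well plates and exposed to compound for 48 hours at five concentrations. GI50 is the concentration that inhibits growth by half.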 Activity calls are given as the source filed them. Rule as the data show it: active = GI50 up to about 1.1 µM and inactive = higher.

Experiments:
Assay in all cases: NCI tumour cell line growth inhibition, 48 h
DLD-1 = tested on: DLD-1
DMS-273 = tested on: DMS-273
HOP-18 = tested on: HOP-18
KM-20L2 = tested on: KM-20L2
LXFL 529 = tested on: LXFL 529
RXF 631 = tested on: RXF 631
SNB-78 = tested on: SNB-78
XF498 = tested on: XF498
BT-549 = tested on: BT-549

| Structure (SMILES) | GI50 (DLD-1) | GI50 (DMS-273) | GI50 (HOP-18) | GI50 (KM-20L2) | GI50 (LXFL 529) | GI50 (RXF 631) | GI50 (SNB-78) | GI50 (XF498) | GI50 (BT-549) |
| --- | --- | --- | --- | --- | --- | --- | --- | --- | --- |
| CCc1ccccc1NC(=O)/C(=N/O)C(C)=O | > 100 µM (inactive) | > 100 µM (inactive) | > 100 µM (inactive) | > 100 µM (inactive) | > 100 µM (inactive) | > 100 µM (inactive) | > 100 µM (inactive) | > 100 µM (inactive) |  |
| O=S1(=O)CCC2=CC(C(F)(F)F)=CC(C(F)(F)F)=CN21 | 0.339 µM (active) | 0.767 µM (active) | 3.35 µM (inactive) | 2.11 µM (inactive) | 0.435 µM (active) | 1.95 µM (inactive) | 1.85 µM (inactive) | 1.79 µM (inactive) | 2.43 µM (inactive) |
| CCOC(=N)CC(=O)NC(C)c1ccccc1 (stereo not drawn) | > 100 µM (inactive) | > 100 µM (inactive) | > 100 µM (inactive) | > 100 µM (inactive) | > 100 µM (inactive) | > 100 µM (inactive) | > 100 µM (inactive) | > 100 µM (inactive) |  |
| Nc1nc(-c2ccccc2)cc(-c2ccccc2O)n1 | 23.9 µM (inactive) | 32 µM (inactive) | > 100 µM (inactive) | 30.2 µM (inactive) | 30.8 µM (inactive) | 34.1 µM (inactive) | 76.9 µM (inactive) | > 100 µM (inactive) |  |
| COc1cccc2nc3c(C(=O)NCCN(C)C)cccc3nc12 | 5.68 µM (inactive) | 7.36 µM (inactive) | 29.5 µM (inactive) | 8.38 µM (inactive) | 11.1 µM (inactive) | 10.8 µM (inactive) | 12.9 µM (inactive) | 0.986 µM (active) |  |
| CC1CCCP(=O)(c2ccccc2)CCC1 (stereo not drawn) | > 100 µM (inactive) | > 100 µM (inactive) | 69 µM (inactive) | > 100 µM (inactive) | > 100 µM (inactive) | > 100 µM (inactive) | > 100 µM (inactive) | > 100 µM (inactive) |  |
| O=C(Cc1nc2ccccc2s1)C(=O)Nc1cccc(Cl)c1 | > 100 µM (inactive) | > 100 µM (inactive) |  | > 100 µM (inactive) | > 100 µM (inactive) | > 100 µM (inactive) | > 100 µM (inactive) | > 100 µM (inactive) |  |
| CC1(C)N=C(c2ccccn2)C(c2ccccn2)=NC1(C)C | > 100 µM (inactive) | > 100 µM (inactive) |  | > 100 µM (inactive) | > 100 µM (inactive) | > 100 µM (inactive) | > 100 µM (inactive) | > 100 µM (inactive) |  |
